Experimental data reported in the NIST ThermoML archive (doi:10.1016/j.fluid.2016.03.009).
± gives the expanded uncertainty stated by the source.

Conditions: 101.33 kPa, Liquid, Vibrating tube method

SMILES	mass density (283.15 K) [kg/m3]	mass density (288.15 K) [kg/m3]	mass density (298.15 K) [kg/m3]	mass density (303.15 K) [kg/m3]	mass density (313.15 K) [kg/m3]	mass density (323.15 K) [kg/m3]	mass density (333.15 K) [kg/m3]	mass density (343.15 K) [kg/m3]	mass density (353.15 K) [kg/m3]	mass density (278.15 K) [kg/m3]	mass density (293.15 K) [kg/m3]	mass density (308.15 K) [kg/m3]	mass density (318.15 K) [kg/m3]	mass density (328.15 K) [kg/m3]	mass density (338.15 K) [kg/m3]	mass density (348.15 K) [kg/m3]
C[n+]1ccn(CCCCS(=O)(=O)O)c1.O=S(=O)([O-])O [1-methyl-3-(4-sulfobutyl)-imidazolium hydrogensulfate]	1450.3 ± 80	1447.02 ± 80	1437.08 ± 80	1433.68 ± 80	1426.76 ± 80	1420.51 ± 80	1414.28 ± 80	1408.07 ± 80	1401.8 ± 80							
CC(O)C(=O)[O-].CCn1cc[n+](C)c1 [1-ethyl-3-methylimidazolium lactate]	1153.47 ± 7.2	1149.77 ± 7.2	1142.46 ± 7.1	1138.89 ± 7	1131.95 ± 7	1125.07 ± 6.9	1118.51 ± 6.8	1111.66 ± 6.7	1105.14 ± 6.6	1157.45 ± 7.3	1146.11 ± 7.1	1135.43 ± 7	1128.51 ± 6.9	1121.67 ± 6.8	1117.98 ± 6.8	1108.39 ± 6.7
C[n+]1ccn(CCCCS(=O)(=O)O)c1.O=S(=O)([N-]S(=O)(=O)C(F)(F)F)C(F)(F)F	1597.92 ± 80	1592.96 ± 80	1582.58 ± 80	1577.87 ± 80	1568.52 ± 80	1559.23 ± 80	1550.01 ± 80	1541.12 ± 80	1532.23 ± 80		1587.85 ± 80	1573.18 ± 80	1563.87 ± 80	1554.6 ± 80	1545.56 ± 80	1536.68 ± 80
CCC[n+]1cccc(C)c1.O=S(=O)([N-]S(=O)(=O)C(F)(F)F)C(F)(F)F	1462.43 ± 80	1457.62 ± 80	1448.03 ± 80	1443.28 ± 80	1433.81 ± 80	1424.43 ± 80	1415.16 ± 80	1405.96 ± 80	1396.85 ± 80	1467.23 ± 80	1452.81 ± 80	1438.54 ± 80	1429.11 ± 80	1419.79 ± 80	1409.8 ± 80	1401.4 ± 80
